In patent publication US20190322676A1, “CERAMIDE GALACTOSYLTRANSFERASE INHIBITORS FOR THE TREATMENT OF DISEASE” (BioMarin Pharmaceutical Inc., priority 2016, published 2019):
Where a name gives a salt, the structure may show the parent alone.

Each compound was assayed against T1, human CGT (ceramide galactosyltransferase), CHO/CGT lysate (Homo sapiens, UniProt Q16880) (assay: CGT enzyme assay, RapidFire/MS/MS readout with 0.01% Tween added (Table 1 ranges with two asterisks **)). Details: CGT enzymatic assay; range with two asterisks (**): RapidFire/MS/MS method with 0.01% Tween added.
T1 construct: Full-length human CGT cDNA was cloned into the BamH1/Xho1 site of pcDNA3.1 (+); expressed in transfected cells; host or cells: Chinese hamster ovary (CHO) cells; lysate prepared with M-PER
T1 sequence (Q16880 21-541): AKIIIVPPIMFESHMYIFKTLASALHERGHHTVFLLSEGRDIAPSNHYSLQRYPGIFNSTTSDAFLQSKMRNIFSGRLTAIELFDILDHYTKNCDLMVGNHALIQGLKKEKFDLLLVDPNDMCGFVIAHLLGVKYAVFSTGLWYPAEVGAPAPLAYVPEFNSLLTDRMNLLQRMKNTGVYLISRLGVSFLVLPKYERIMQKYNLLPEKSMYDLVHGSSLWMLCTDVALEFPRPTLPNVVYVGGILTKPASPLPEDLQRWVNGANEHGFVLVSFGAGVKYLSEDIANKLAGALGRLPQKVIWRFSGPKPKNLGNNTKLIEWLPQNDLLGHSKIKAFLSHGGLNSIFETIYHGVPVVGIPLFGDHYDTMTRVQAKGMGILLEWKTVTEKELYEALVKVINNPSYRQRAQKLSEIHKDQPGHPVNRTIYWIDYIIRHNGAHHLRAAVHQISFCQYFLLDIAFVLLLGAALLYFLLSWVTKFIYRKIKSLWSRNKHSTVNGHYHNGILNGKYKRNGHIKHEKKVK
Assay type: biochemical
Protocol: Full-length human CGT cDNA was cloned into the BamH1/Xho1 site of pcDNA3.1 (+) mammalian expression vector (V90-20, Invitrogen, Carlsbad, Calif.) and the plasmid was transfected into Chinese hamster ovary (CHO) cells. Lysate was prepared using M-PER (Mammalian Protein Extraction Reagent, ThermoFisher Scientific, Grand Island, N.Y.) in the presence of a protease inhibitor cocktail (P8340, Sigma, Saint Louis, Mo.). Each 100 mm dish (100% confluent, approximately 1×10^7 cells) was lysed with 250 μL of M-PER containing protease inhibitors. Protein concentration was determined using a Pierce BCA protein assay kit (ThermoFisher Scientific). Four micrograms of CHO/CGT lysate was incubated with various concentrations of a compound (0.001 μM-50 μM) in 10 mM HEPES (pH 7.2) containing 35 μM dioleoylphosphatidylcholine, 5 mM MgCl2, 5 mM MnCl2, 1% BSA, 15 mM KCl, 1 mM EGTA, 8 mM CHAPS, 10 μM C6-NBD-dihydro-ceramide and 17.5 μM UDP-galactose in a final reaction volume of 20 μL at 37° C. for 1 hour. The final concentration of DMSO was 0.5% in both compound-treated and mock-treated samples. Tween 80 (0.01%) was optionally added to the reaction mixture to help solubilize the compounds. Each individual reaction was diluted with 80 μL of methanol:acetronitrile (1:3) containing 5 μM N-docdecanoyl-NBD-galactosylceramide (internal standard) to stop the reaction. 200 μL H2O:acetonitile (1:1) was added to precipitate the protein. After sufficient mixing, the plates were centrifuged at 2469 g for 38 minutes, 200 μL of supernatant was transferred to a LC/MS 96-deep well plate and a second spin was performed at 2469 g for 10 minutes. The final supernatant was injected in triplicate for RapidFire/MS/MS analysis.
Quantitative Analysis Using the RapidFire/MS/MS Method:
The quantitative analysis of C6-NBD-dihydro-ceramide and C6-NBD-dihydro-galactosylceramide was performed on a Rapid Fire 360 high-throughput mass spectrometry system (Agilent Technologies, Palo Alto, Calif.) coupled with a API4000^+ triple quadrupole mass spectrometer (Applied Biosystems, Concord, Ontario, Canada). RapidFire software packages, including RapidFire Control panel, RapidFire UI and RapidFire Integrator (Agilent Technologies), were used to control the RapidFire instrument and to process data. Analyst 1.6.2 software packages (Applied Biosystems) were used to control the MS system and acquire MS data. […] of sample was loaded on a micro-scale C4 solid-phase extraction (SPE) cartridge (Agilent Technologies) and salts were removed using water supplemented with 0.1% formic acid at the flow rate of 1.5 mL/min for 3 sec. C6-NBD-dihydro-ceramide and C6-NBD-dihydro-galactosylceramide were co-eluted into the mass spectrometer using acetonitrile containing 0.1% formic acid at the flow rate of 1.0 mL/min for 3 sec. The total cycle time of one injection was 8 secs. The MS/MS detection was performed in ESI negative mode. The mass transition of C6-NBD-dihydro-galactosylceramide was m/z 752.6→678.6 using a −40 V collision energy, the mass transition of C6-NBD-dihydro-ceramide was m/z 590.6→115.8 using a −40 V collision energy and the mass transition of N-docdecanoyl-NBD-galactosylceramide was m/z 820.9→746.3 using a −45 V collision energy.
The C6-NBD-dihydro-galactosylceramide reading was normalized first by dividing the peak area of C6-NBD-dihydro-galactosylceramide by the peak area of the internal standard, N-docdecanoyl-NBD-galactosylceramide. IC50 values (see Table 1, where data ranges with one asterix (*) correspond to analysis using the RapidFire/MS/MS method, and data ranges with two asterixes (**) correspond to analysis using the RapidFire/MS/MS method with 0.01% Tween added) were generated from sigmoidal dose-response curves (variable slope) with GraphPad Prism software (GraphPad Software, Inc., San Diego, Calif.) using the normalized peak areas of C6-NBD-dihydro-galactosylceramide or the percent inhibition of C6-NBD-dihydro-galactosylceramide accumulation relative to DMSO control. […]
`N[C@@H]1CCN(C(=O)[C@H](NS(=O)(=O)c2ccc(OCC3CCCCC3)cc2)C(F)(F)c2ccc(Cl)cc2)C1` [Compound 189-2, N-((S)-3-((R)-3-aminopyrrolidin-1-yl)-1-(4-chlorophenyl)-1,1-difluoro-3-oxopropan-2-yl)-4-(cyclohexylmethoxy)benzenesulfonamide] showed an IC50 of 10 to 30 µM.
Work on `O=C([C@@H](NS(=O)(=O)c1ccc2cc(OC3CCCC3)ccc2c1)C(F)(F)c1ccc(-c2ccc(Cl)cc2)cc1)N1C[C@H]2CNC[C@H]2C1` [Compound 147-1, N—((R)-1-(4′-chloro-[1,1′-biphenyl]-4-yl)-1,1-difluoro-3-((3aR,6aS)-hexahydropyrrolo[3,4-c]pyrrol-2(1H)-yl)-3-oxopropan-2-yl)-6-(cyclopentyloxy) naphthalene-2-sulfonamide trifluoroacetate] yielded an IC50 of less than 1 µM.
`NC1CCN(C(=O)[C@@H](NS(=O)(=O)c2ccc(OCC3CCCCC3)cc2)C(F)(F)c2ccc(-c3ccccc3)cc2)CC1` [Compound 156-1, (R)—N-(1-([1,1′-biphenyl]-4-yl)-3-(4-aminopiperidin-1-yl)-1,1-difluoro-3-oxopropan-2-yl)-4-(cyclohexylmethoxy)benzenesulfonamide trifluoroacetate] gave an IC50 of 1 to 10 µM.
For `N[C@H]1CCN(C(=O)[C@H](NS(=O)(=O)c2ccc3cc(OC4CCCC4)ccc3c2)C(F)(F)c2ccc(-c3ccc(Cl)cc3)cc2)C1` [Compound 148-2, N—((S)-3-((S)-3-aminopyrrolidin-1-yl)-1-(4′-chloro-[1,1′-biphenyl]-4-yl)-1,1-difluoro-3-oxopropan-2-yl)-6-(cyclopentyloxy)naphthalene-2-sulfonamide trifluoroacetate], the IC50 was 10 to 30 µM.
With `O=C([C@H](NS(=O)(=O)c1ccc2cc(OC3CCCC3)ccc2c1)C(F)(F)c1ccc(-c2ccc(Cl)cc2)cc1)N1C[C@H]2CNC[C@H]2C1` [Compound 147-2, N—((S)-1-(4′-chloro-[1,1′-biphenyl]-4-yl)-1,1-difluoro-3-((3aR,6aS)-hexahydropyrrolo[3,4-c]pyrrol-2(1H)-yl)-3-oxopropan-2-yl)-6-(cyclopentyloxy)naphthalene-2-sulfonamide trifluoroacetate] the IC50 was 10 to 30 µM.
`NC1CCN(C(=O)[C@H](NC(=O)C(=O)c2cc3ccc(OC4CCCC4)cc3s2)C(F)(F)c2ccc(-c3ccc(Cl)cc3)cc2)CC1` [Compound 175-2, (S)—N-(3-(4-aminopiperidin-1-yl)-1-(4′-chloro-[1,1′-biphenyl]-4-yl)-1,1-difluoro-3-oxopropan-2-yl)-2-(6-(cyclopentyloxy)benzo[b]thiophen-2-yl)-2-oxoacetamide trifluoroacetate] showed an IC50 of 30 to 100 µM.
`N[C@H]1[C@@H]2CC[C@H]1CN(C(=O)[C@H](NS(=O)(=O)c1ccc3cc(OC4CCCC4)ccc3c1)C(F)(F)c1ccc(-c3ccc(Cl)cc3)cc1)C2` [Compound 184-2, N-((S)-3-((1R,5S,8S)-8-amino-3-azabicyclo[3.2.1]octan-3-yl)-1-(4′-chloro-[1,1′-biphenyl]-4-yl)-1,1-difluoro-3-oxopropan-2-yl)-6-(cyclopentyloxy)naphthalene-2-sulfonamide] was tested, and the IC50 was 1 to 10 µM.
`N[C@H]1CCN(C(=O)[C@@H](NS(=O)(=O)c2ccc3cc(OC4CCCC4)ccc3c2)C(F)(F)c2ccc(-c3ccc(Cl)cc3)cc2)C1` [Compound 148-1, N—((R)-3-((S)-3-aminopyrrolidin-1-yl)-1-(4′-chloro-[1,1′-biphenyl]-4-yl)-1,1-difluoro-3-oxopropan-2-yl)-6-(cyclopentyloxy)naphthalene-2-sulfonamide trifluoroacetate] showed an IC50 of 1 to 10 µM.
In the case of `O=C([C@@H](NS(=O)(=O)c1ccc(OCC2CCCCC2)cc1)C(F)(F)c1ccc(-c2ccc(Cl)cc2)cc1)N1CCNCC1` [Compound 151-1, (R)—N-(1-(4′-chloro-[1,1′-biphenyl]-4-yl)-1,1-difluoro-3-oxo-3-(piperazin-1-yl)propan-2-yl)-4-(cyclohexylmethoxy)benzenesulfonamide trifluoroacetate], the IC50 is reported as 1 to 10 µM.
With `N[C@H]1[C@@H]2CC[C@H]1CN(C(=O)[C@H](NS(=O)(=O)c1ccc3cc(OC4CCCC4)ccc3c1)C(F)(F)c1ccc(Cl)cc1)C2` [Compound 150-2, N—((S)-3-((1R,5S,8S)-8-amino-3-azabicyclo[3.2.1]octan-3-yl)-1-(4-chlorophenyl)-1,1-difluoro-3-oxopropan-2-yl)-6-(cyclopentyloxy)naphthalene-2-sulfonamide trifluoroacetate] the IC50 was 1 to 10 µM.
For `NC1CCN(C(=O)[C@H](NS(=O)(=O)c2ccc(OCC3CCCCC3)cc2)C(F)(F)c2ccc(C3(C(F)(F)F)CC3)cc2)CC1` [Compound 196-2, (S)-N-(3-(4-aminopiperidin-1-yl)-1,1-difluoro-3-oxo-1-(4-(1-(trifluoromethyl)cyclopropyl)phenyl)propan-2-yl)-4-(cyclohexylmethoxy)benzenesulfonamide], the IC50 was 10 to 30 µM.
In the case of `COc1cc(C(F)(F)[C@H](NS(=O)(=O)c2ccc(OCC3CCCCC3)cc2)C(=O)N2CCC(N)CC2)ccc1Br` [Compound 145-1, (R)—N-(3-(4-aminopiperidin-1-yl)-1-(4-bromo-3-methoxyphenyl)-1,1-difluoro-3-oxopropan-2-yl)-4-(cyclohexylmethoxy)benzenesulfonamide trifluoroacetate], the IC50 is reported as less than 1 µM.
With `O=C([C@H](NS(=O)(=O)c1ccc2cc(OC3CCCC3)ccc2c1)C(F)(F)c1ccc(-c2ccc(Cl)cc2)cc1)N1Cc2cn[nH]c2C1` [Compound 176-2, (S)—N-(1-(4′-chloro-[1,1′-biphenyl]-4-yl)-3-(4,6-dihydropyrrolo[3,4-c]pyrazol-5(1H)-yl)-1,1-difluoro-3-oxopropan-2-yl)-6-(cyclopentyloxy)naphthalene-2-sulfonamide] the IC50 was 30 to 100 µM.

Same assay, conditions: CGT enzyme assay, RapidFire/MS/MS method with 0.01% Tween added (range with two asterisks **)
Compound `COc1cc(C(F)(F)[C@@H](NS(=O)(=O)c2ccc3cc(OC4CCCC4)ccc3c2)C(=O)N2CCC(N)CC2)ccc1Br` [Compound 143-2, (S)—N-(3-(4-aminopiperidin-1-yl)-1-(4-bromo-3-methoxyphenyl)-1,1-difluoro-3-oxopropan-2-yl)-6-(cyclopentyloxy) naphthalene-2-sulfonamide trifluoroacetate] has an IC50 of 1 to 10 µM.
For `COc1cc(C(F)(F)[C@H](NS(=O)(=O)c2ccc(OCC3CCCCC3)cc2)C(=O)N2C3CCC2CC(N)C3)ccc1-c1ccc(Cl)cc1` (stereo partly drawn) [Compound 142-1, N-((2R)-3-(3-amino-8-azabicyclo[3.2.1]octan-8-yl)-1-(4′-chloro-2-methoxy-[1,1′-biphenyl]-4-yl)-1,1-difluoro-3-oxopropan-2-yl)-4-(cyclohexylmethoxy) benzenesulfonamide trifluoroacetate], the IC50 was less than 1 µM.
